Measurements from paper PMC11237035, “Glutathione determines chronic myeloid leukemia vulnerability to an inhibitor of CMPK and TMPK” (Communications Biology, 2024).
Where “and” joins values, the source holds several entries; their conditions need not be identical. Identical values can stand only once.

How the values were obtained:
K562 cells = assay: GSH/GSSG-Glo measurement, K562 cells; assay type: cell-based, human
Experimental: (§1) After 3 days, cells were analyzed by viability assays.
(§2) The GSH/GSSG-Glo™ Assay Kit (Promega, V6611) was used for luminescent-based measurement of cellular GSH and GSSG by Tecan Spark 10 microplate reader.

untransformed 32D cells [1] = assay: CCK-8 cell viability assay, untransformed 32D cells; assay type: cell-based, mouse; conditions: for viability (0 = 100): Untransformed, single replicates
Experimental: After 72 h, viability assays were performed.
3 independent experiments. Asterisks denote ***p<0.001 from non-paired two-tailed

untransformed 32D cells [2] = assay: DNA fiber assay (replication speed), untransformed 32D cells; assay type: cell-based, mouse; conditions: UK-5099 25 μM, 16 h
Experimental: (§3) The workflow of DNA fiber labeling (Right). The representative labeled fibers are shown below. Replication speed in kb/min was calculated by the measured length of IdU (green) linking to CldU (red) in μm with a conversion factor of 0.34 μm/kb divided by the duration of the labeling pulse (Scale bar = 10 μm). The gray triangle indicates the boundary between red fluorescence and green fluorescence. c The measurement of intracellular ROS by the fluorescence intensity of CellROX Green staining using flow cytometric analysis. Data are presented as mean intensity relative to untransformed 32D cells. d, e The measurement of GSSG and GSH. […] Schematic illustration of the metabolic path U-^13C glutamine incorporation into the GSH (left). Gray and white circles indicate ^13C-label, and unlabeled ^12C, respectively. The traced isotopologue abundance of GSH is shown (right).
(§4) The DNA fiber assay was performed as described previously. Briefly, cells were sequentially treated with the medium containing 25 μM of CldU (Sigma-Aldrich, C6891) and then 250 μM of IdU (Sigma-Aldrich, I7125) for 20 min. After washing, cells were suspended in PBS (1000 cells/ μL). 2 μL of cell suspension was spotted on slides. […] The lengths of red- and green-labeled fibers were determined by FluoView3.0 software (Olympus).

[3] = tested on: T315I-Bcr-Abl-32D cells in C3H/HeNCrNarl mice; conditions: T315I-Bcr-Abl-32D mice, UK-5099 10 mg/kg i.p. daily for 14 days alone, vs vehicle
Experimental: Asterisks denote *p < 0.05, **p < 0.01, ***p < 0.001, or ****p < 0.0001 from unpaired two-tailed Student’s t-test or Log-rank (Mantel–Cox) test.
T315I-Bcr-Abl-transformed and untransformed 32D cells were treated with UK-5099 (25 μM) for 16 h. […] Data are represented as means ± S.D., n > 3 biological replicates.
The animal studies were approved by the biosafety committee at National Taiwan University and conformed to the national guidelines and regulations (IACUC # 20201063). Female C3H/HeNCrNarl mice were used at 6–8 weeks of age (National Laboratory Animal Center, Taiwan).
Mouse CML induction and in vivo therapy
The animal studies were approved by the biosafety committee at National Taiwan
University and conformed to the national guidelines and regulations (IACUC #
20201063). Female C3H/HeNCrNarl mice were used at 6-8 weeks of age (National
Laboratory Animal Center, Taiwan).
suspended in 200 μL of HBSS were injected into each mouse through the tail vein.
suspended in 200 μL of HBSS were tail-vein-injected.
For monitoring CML progress, mice blood was
collected in anticoagulation tubes by submandibular blood collection, followed by
lysing red blood cells with RBC lysis buffer (Invitrogen). After washing, the remaining
cells were suspended in 500 μL of HBSS and subjected to flow cytometry analysis
(FACScalibur, BD Bioscience) with CellQuest software.

TCCS cells = assay: GSH/GSSG-Glo measurement, TCCS cells; assay type: cell-based, human
Experimental: as §1, §2

T315I-Bcr-Abl-32D cells [4] = assay: DNA fiber assay (replication speed), T315I-Bcr-Abl-32D cells; assay type: cell-based, mouse; conditions: T315I-Bcr-Abl cells, UK-5099 25 μM, 16 h
Experimental: as §3, §4

T315I-Bcr-Abl-32D cells [5] = assay: CCK-8 cell viability assay, T315I-Bcr-Abl-32D cells; assay type: cell-based, mouse; conditions: T315I-Bcr-Abl; for viability (0 = 100): single replicates
T315I-Bcr-Abl-32D cells [6] = assay: GSH/GSSG-Glo measurement, T315I-Bcr-Abl-32D cells; assay type: cell-based, mouse; conditions: T315I-Bcr-Abl cells, UK-5099 25 μM, 16 h
Text: as §2

T315I-Bcr-Abl-32D cells [7] = assay: dTTP/dCTP pools by RCA-qPCR in T315I-Bcr-Abl-32D cells; assay type: cell-based, mouse; conditions: T315I; replicates
Experimental: The methanol extracts were centrifuged
For chloroform extraction, same volume of
attomol of the annealed template-primer.
The RCA products were determined by
The thiophenol compound 3 was
(98.5%) after silica gel chromatography.

KOPM28 cells = assay: GSH/GSSG-Glo measurement, KOPM28 cells; assay type: cell-based, human
Experimental: as §1, §2

untransformed 32D cells [8] = assay: GSH/GSSG-Glo measurement, untransformed 32D cells; assay type: cell-based, mouse; conditions: UK-5099 25 μM, 16 h
Text: as §2

hTMPK = target: T1, hTMPK (Homo sapiens, UniProt P23919); assay: biochemical
T1 sequence (P23919 1-212): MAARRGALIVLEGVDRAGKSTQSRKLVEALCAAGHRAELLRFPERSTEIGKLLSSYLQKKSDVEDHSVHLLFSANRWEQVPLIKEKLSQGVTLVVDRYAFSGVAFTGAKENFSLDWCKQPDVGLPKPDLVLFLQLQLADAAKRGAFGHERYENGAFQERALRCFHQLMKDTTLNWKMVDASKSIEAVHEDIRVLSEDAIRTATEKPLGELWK
Experimental: (§7) Activity assay was measured using the spectrophotometric method by coupling ADP formation to NADH oxidation catalyzed by pyruvate kinase and lactate dehydrogenase as described previously[20]. Each reaction contained 0.4 μg TMPK or 0.3 μg CMPK was incubated at 25 °C followed by using Tecan Spark 10 microplate reader to detect the change in NADH measurement at 340 nm absorption according to the manufacturer’s instructions.

hCMPK = target: T2, hCMPK (Homo sapiens, UniProt P30085); assay: biochemical
T2 sequence (P30085 1-196): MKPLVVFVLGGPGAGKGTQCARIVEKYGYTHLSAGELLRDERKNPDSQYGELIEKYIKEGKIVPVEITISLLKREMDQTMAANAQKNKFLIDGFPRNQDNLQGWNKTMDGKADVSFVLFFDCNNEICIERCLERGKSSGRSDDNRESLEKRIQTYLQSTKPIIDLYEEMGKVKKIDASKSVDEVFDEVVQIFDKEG
Experimental: as §7

WT-Bcr-Abl-32D cells [9] = assay: CCK-8 cell viability assay, WT-Bcr-Abl-32D cells; assay type: cell-based, mouse; conditions: WT-Bcr-Abl, single replicates
untransformed 32D cells [10] = assay: Western blot of tyrosine phosphorylation, untransformed 32D cells; assay type: cell-based, mouse; conditions: 32D progenitor cells, 2 μM, 4 h, pY99 Western blot
T315I-Bcr-Abl-32D cells [11] = assay: Western blot of tyrosine phosphorylation and Bcr-Abl downstream signaling, T315I-Bcr-Abl-32D cells; assay type: cell-based, mouse
Text: (§5) Supplementary Figure 1. Bcr-Abl-activated downstream signaling in WT- and
(§6) The comparison of Bcr-Abl downstream signaling (Akt, mTorC1, and Stat5) in WT- […]

WT-Bcr-Abl-32D cells [12] = assay: Western blot of tyrosine phosphorylation and Bcr-Abl downstream signaling, WT-Bcr-Abl-32D cells; assay type: cell-based, mouse
Text: as §5, §6

N#C/C(=C\c1cn(-c2ccccc2)c2ccccc12)C(=O)O [UK-5099]
GSH% relative to K562 (Figure 7e) (K562 cells; K562, UK-5099 treated, K562 vehicle = 100, per replicate): 52.9657% and 35.7607% and 66.83%
cellular level of GSH (K562 cells; K562 cells, UK-5099 50 μM, 16 h): bring down
Figure 6c, viability relative to NT (=100) (untransformed 32D cells [1]; 32D, UK-5099 alone (JMF4073 0), replicates): 104.358 and 105.293 and 83.4613
effect on replication stress, compared with T315I-Bcr-Abl cells (untransformed 32D cells [2]): less
survival of leukemia mice [3]: not affected
GSH level (TCCS cells; TCCS cells, UK-5099 50 μM, 16 h): unchanged
GSH% relative to K562 (Figure 7e) (TCCS cells; TCCS, UK-5099 treated, K562 vehicle = 100, per replicate): 96.7924% and 63.772% and 96.1621%
replication fork progression (T315I-Bcr-Abl-32D cells [4]): slow replication fork progression
Figure 6c, viability relative to NT (=100) (T315I-Bcr-Abl-32D cells [5]; UK-5099 alone (JMF4073 0), replicates): 99.9363 and 88.5988 and 102.123
GSH level (T315I-Bcr-Abl-32D cells [6]): reduce GSH levels
Figure 6d, dCTP relative to NT (=100) (T315I-Bcr-Abl-32D cells [7]): 73.8406 and 210.17 and 73.3898
Figure 6d, dTTP relative to NT (=100) (T315I-Bcr-Abl-32D cells [7]): 74.5764 and 216.09 and 77.7298
GSH% relative to K562 (Figure 7e) (KOPM28 cells; KOPM28, UK-5099 treated, K562 vehicle = 100, per replicate): 180.441% and 154.066% and 117.536%
GSH level (KOPM28 cells; KOPM28 cells, UK-5099 50 μM, 16 h): unchanged
effect on GSH reduction, compared with T315I-Bcr-Abl cells (untransformed 32D cells [8]): less

CCOC(=O)N1CCN(C(=O)Cn2sc3nc(C)cc(C)c3c2=O)CC1 [YMU1]
IC50 (hTMPK): 720 nM
IC50 (hCMPK): 1800 nM

Nc1ccn([C@@H]2O[C@H](CO)[C@@H](O)[C@@H]2O)c(=O)n1 [ara-C, cytosine arabinoside]
viability (0 = 100) (WT-Bcr-Abl-32D cells [9]; AraC 0.25 μM): 45.2109 and 73.8346 and 101.332
viability (0 = 100) (WT-Bcr-Abl-32D cells [9]; AraC 0.5 μM): 24.4529 and 41.8769 and 43.1257
viability (0 = 100) (WT-Bcr-Abl-32D cells [9]; AraC 1 μM): 7.238 and 10.5227 and 12.1803
viability (0 = 100) (WT-Bcr-Abl-32D cells [9]; AraC 2 μM): 1.535 and 1.964 and 2.059
viability (0 = 100) (untransformed 32D cells [1]; AraC 0.25 μM): 80.5922 and 25.4877 and 20.7295
viability (0 = 100) (untransformed 32D cells [1]; AraC 0.5 μM): 32.0177 and 10.1455 and 8.811
viability (0 = 100) (untransformed 32D cells [1]; AraC 1 μM): 12.3749 and 4.297 and 2.7153
viability (0 = 100) (untransformed 32D cells [1]; AraC 2 μM): 4.929 and -0.8077 and -0.4748
sensitivity compared among WT-, T315I-Bcr-Abl-32D and untransformed 32D progenitor cells (untransformed 32D cells [1]; viability assays): similar
viability (0 = 100) (T315I-Bcr-Abl-32D cells [5]; AraC 0.25 μM): 91.0147 and 59.6875 and 56.2982
viability (0 = 100) (T315I-Bcr-Abl-32D cells [5]; AraC 0.5 μM): 23.443 and 24.5051 and 17.9316
viability (0 = 100) (T315I-Bcr-Abl-32D cells [5]; AraC 1 μM): 4.479 and 5.149 and 3.231
viability (0 = 100) (T315I-Bcr-Abl-32D cells [5]; AraC 2 μM): 0.8258 and 1.3128 and 0.8788

Cc1ccc(C(=O)Nc2ccc(CN3CCN(C)CC3)c(C(F)(F)F)c2)cc1C#Cc1cnc2cccnn12 [ponatinib]
basal level of tyrosine phosphorylation (untransformed 32D cells [10]): also reduced
Bcr-Abl downstream signals (pAkt-S473, pS6K-T389, pStat5-Y694) (T315I-Bcr-Abl-32D cells [11]): abolished these signals
level of overall tyrosine phosphorylation (T315I-Bcr-Abl-32D cells [11]): reduced
Bcr-Abl downstream signals (pAkt-S473, pS6K-T389, pStat5-Y694) (WT-Bcr-Abl-32D cells [12]): abolished these signals
level of overall tyrosine phosphorylation (WT-Bcr-Abl-32D cells [12]): reduced
